Laboratory results from US20080226718A1, “Indole and Azaindole Derivatives For the Treatment of Inflammatory and Autoimmune Diseases” (Brane Discovery S.r.l, priority 2005, published 2008).

Columns and labels:
PMNs [1] = experiment: Chemotaxis assay, PMNs (fMLP); type: cell-based; settings: Homo sapiens, fMLP 10 nM, 2 h; for inhibition at 10 µM: [cpd] 10 μM; for inhibition at 25 µM: [cpd] 25 μM; for inhibition at 50 µM: [cpd] 50 μM
Method: (§1) PMNs and monocytes migration was assessed using 1 or 3-μm pore size transwells (Bio-Coat Becton-Dickinson), while lymphocytes by using 5-elm pore size transwells.
(§2) Cells were in RPMI1640, containing 10% heat-inactivated Fetal Calf Serum (FCS) and 20 mM HEPES, pH 7.3, at 2×10^6/ml. 100 μl of cell suspension were added to the top well, and 600 μl of medium, containing chemoattractants and test compound, were added to the bottom well. Migration was evaluated after 2 h for PMNs and monocytes and after 4 h for lymphocytes. fMLP 10 nM (PMNs and monocytes) and MIP-3β 100 nM (lymphocytes) were utilized as chemoattractants. After fixation with 1.5% glutaraldehyde, migrated cells were counted by fluorescence-activated celli sorting using polystyrene beads (Polyscience) as an internal standard (Campbell J. J. et al. J. Cell. Biol. 134, 255-266, 1996; Laudanna C. et al. J. Biol. Chem. 273,46, 30306-30315, 1998).
(§3) Results are expressed as percentage of inhibition over control (=100%), and are the mean of three experiments.

[2] = system: encephalitogenic lymphocytes; experiment: Chemokine-induced adhesion of murine encephalitogenic T cells to ICAM-1; type: cell-based, SJL mice; settings: ICAM-1; for Chemokine-induced Adhesion in encephalitogenic lymphocytes, Mean counts ± S.D., in presence of MIP3-β stimulation: 1 μM CCL19 (MIP-3beta)
Method: (§4) Adhesion was performed on purified integrin ligands and was evaluated as reported in Constantin G. et al., Immunity, 16, 759-769, 2000. Briefly, primary naïve lymphocytes, polymorphonuclear neutrophils (PMNs) or monocytes were isolated form healthy donors. In other experiments, murine autoreactive T cells were obtained from SJL mice immunized with PLP139-151 as described (Piccio L. et al., J. Immunol, 168, 1940-1949, 2002). Cells were resuspended at 4×10^6/ml in PBS, CaCl2, MgCl2 1 mM, 10% FCS, pH 7.2. Adhesion assays were performed on eighteen well glass slides coated overnight at 4° C. with ligands for CR3 (fibrinogen) or LFA-1 (ICAM-1). 20 μl of cell suspension were added to the wells and stimulated at 37° C. with 5 μl of agonists prior to washing, fixation and computer-assisted enumeration of bound cells.
(§5) Integrin activation was measured as induction of rapid adhesion triggered by the classical chemoattractant N-formyl-L-methionyl-L-leucyl-phenylalanine (fMLP) (100 nM) or by the CC chemokine MIP3β (CCL19, 1 μM). PMNs and monocytes were triggered to adhere to fibrinogen (CR3 ligand); naive human lymphocytes or murine encephalitogenic T cells were triggered to adhere to ICAM-1 (LFA-1 ligand). Triggered adhesion was evaluated after 2 min of stimulation under static conditions. The cells were pretreated at 37° C. for 30-60 min with the indicated concentrations of the test compound. Results are expressed as percentage of inhibition over control (=100%) and are the mean of three experiments in the case of human leukocytes. Results are expressed as mean counts and are the mean counts ±S.D of three experiments and are the mean of three experiments in the case of murine encephalitogenic lymphocytes.
Chemokines trigger rapid arrest of lymphocytes in blood vessels through pertussis toxin-sensitive G protein coupled receptors. Rapid adhesion to purified ICAM-1 was measured in in vitro adhesion assays using control/untreated cells and lymphocytes treated with concentration between 5-50 μM for 1 h. Autoreactive lymphocytes were then stimulated with 1 μM CCL19 (MIP-3beta) for 3 min. […] These compounds were already efficient in blocking adhesion using a concentration of 5 μM for the cell treatment.

[3] = system: encephalitogenic lymphocytes; experiment: Spontaneous adhesion of encephalitogenic T cells on purified ICAM-1; type: cell-based, SJL mice; settings: Mus musculus, Lymphocyte, 1 h; for inhibition at 5 µM: [cpd] 5 μM, read-out: Inhibition of Spontaneous Adhesion in encephalitogenic lymphocytes (% of control/non-treated cells) ICAM-1; for inhibition at 10 µM: [cpd] 10 μM; for inhibition at 10 µM / inhibition at 50 µM: read-out: Inhibition of Spontaneous Adhesion in encephalitogenic lymphocytes (% of control/non-treated cells) ICAM-1 (converted); for inhibition at 50 µM: [cpd] 50 μM
Method: Spontaneous adhesion of encephalitogenic lymphocytes was measured in adhesion assays on purified ICAM-1 and VCAM-1 as previously described (Constantin G. et al., J. Immunol. 162, 1144-1149, 1999). Autoreactive T cells were obtained from SJL mice immunized with PLP139-151 as described (Piccio L. et al., J. Immunol. 168, 1940-1949, 2002). Lymphocytes were treated with test compound at concentrations between 5-100 μM for 1 h, while control/untreated cells were treated with vehicle (DMSO). Results are expressed as percentage of inhibition over control (=100%) ±S.D and are the mean of three-four experiments.
ICAM-1 and VCAM-1 are adhesion molecules from the family of immunoglobulins and control the migration of lymphocytes through the endothelium during inflammatory responses. Encephalitogenic T cells are activated lymphocytes displaying spontaneous adhesion on ICAM-1 and VCAM-1 and have increased migration capacities in inflammation sites. Spontaneous adhesion of encephalitogenic lymphocytes was measured in adhesion assays on purified ICAM-1 and VCAM-1 as described in the method.

lymphocytes [4] = experiment: Chemokine-induced rapid adhesion of lymphocytes to ICAM-1 (MIP3β); type: cell-based; settings: Homo sapiens, Lymphocyte, MIP3β 1 μM; for inhibition at 10 µM: [cpd] 10 μM, read-out: Inhibition of Adhesion (%) Lymphocytes (MIP3-β); for inhibition at 25 µM: [cpd] 25 μM; for inhibition at 25 µM / inhibition at 50 µM: read-out: Inhibition of Adhesion (%) Lymphocytes (MIP3-β) (converted); for inhibition at 50 µM: [cpd] 50 μM
Method: as §4, §5
(§6) Integrin activation was measured as induction of rapid adhesion triggered by the “classical” chemoattractant fMLP (100 nM) or by the CC chemokine MIP3β (CCL19, 1 μM). PMNs were triggered to adhere to fibrinogen (CR3 ligand); lymphocytes were triggered to adhere to ICAM-1 (LFA-1 ligand).

monocytes [5] = experiment: Chemotaxis assay, monocytes (fMLP); type: cell-based; settings: Homo sapiens, Monocyte, fMLP 10 nM, 2 h; for inhibition at 10 µM: [cpd] 10 μM; for inhibition at 25 µM: [cpd] 25 μM; for inhibition at 50 µM: [cpd] 50 μM
Method: as §1, §2, §3

monocytes [6] = experiment: Chemokine-induced rapid adhesion of monocytes to fibrinogen (fMLP); type: cell-based; settings: Homo sapiens, Monocyte, fMLP 100 nM; for inhibition at 10 µM: [cpd] 10 μM; for inhibition at 25 µM: [cpd] 25 μM; for inhibition at 50 µM: [cpd] 50 μM
Method: as §4, §5

PMNs [7] = experiment: Chemokine-induced rapid adhesion of PMNs to fibrinogen (fMLP); type: cell-based; settings: Homo sapiens, 2 min, fMLP 100 nM; for inhibition at 10 µM: [cpd] 10 μM; for inhibition at 25 µM: [cpd] 25 μM; for inhibition at 50 µM: [cpd] 50 μM
Method: as §4, §5, §6

lymphocytes [8] = experiment: Chemotaxis assay, lymphocytes (MIP-3β); type: cell-based; settings: Homo sapiens, Lymphocyte, MIP-3β 100 nM, 4 h; for inhibition at 10 µM: [cpd] 10 μM, read-out: Inhibition of Chemotaxis (%) Lymphocytes (MIP3-β); for inhibition at 25 µM: [cpd] 25 μM; for inhibition at 25 µM / inhibition at 50 µM: read-out: Inhibition of Chemotaxis (%) Lymphocytes (MIP3-β) (converted); for inhibition at 50 µM: [cpd] 50 μM
Method: as §1, §2, §3

Row | Structure (SMILES) | inhibition at 10 µM (PMNs [1]) [%] | inhibition at 25 µM (PMNs [1]) [%] | inhibition at 50 µM (PMNs [1]) [%] | inhibition at 5 µM [3] [%] | inhibition at 10 µM [3] [%] | inhibition at 50 µM [3] [%] | inhibition at 10 µM (lymphocytes [4]) [%] | inhibition at 25 µM (lymphocytes [4]) [%] | inhibition at 50 µM (lymphocytes [4]) [%] | inhibition at 10 µM (monocytes [5]) [%] | inhibition at 25 µM (monocytes [5]) [%] | inhibition at 50 µM (monocytes [5]) [%] | inhibition at 10 µM (monocytes [6]) [%] | inhibition at 25 µM (monocytes [6]) [%] | inhibition at 50 µM (monocytes [6]) [%] | inhibition at 10 µM (PMNs [7]) [%] | inhibition at 25 µM (PMNs [7]) [%] | inhibition at 50 µM (PMNs [7]) [%] | inhibition at 10 µM (lymphocytes [8]) [%] | inhibition at 25 µM (lymphocytes [8]) [%] | other results
1 | COc1ccc(-c2c(C#N)n(CCCN(C)C)c3cc(OC)c(OC)cc23)cc1 [Example 55] | 79.4 | 94.2 | 96.8 | 7.6 | 12.4 | 96.4 | 80 | 91.9 | 97 | 54.6 | 89.2 | 92.9 | 7.7 | 38.5 | 97.9 | 8.4 | 19 | 27.4 | 43.7 | 84.2 | Chemokine-induced Adhesion in encephalitogenic lymphocytes, Mean counts ± S.D., in presence of MIP3-β stimulation ([2]; [cpd] 10 μM): 98.3 ± 13.7; Adhesion in encephalitogenic lymphocytes, Mean counts ± S.D., in absence of MIP3-β stimulation ([2]; [cpd] 10 μM): 53.5 ± 3.5; Chemokine-induced Adhesion in encephalitogenic lymphocytes, Mean counts ± S.D., in presence of MIP3-β stimulation ([2]; [cpd] 50 μM): 46.9 ± 6.2; Adhesion in encephalitogenic lymphocytes, Mean counts ± S.D., in absence of MIP3-β stimulation ([2]; [cpd] 50 μM): 13.2 ± 3.7; inhibition at 50 µM (lymphocytes [8]): 91.2%
2 | COc1cc2[nH]c(-c3nnc[nH]3)c(-c3ccccc3)c2cc1OC [Example 58] | 53.9 | 87.5 | 97.9 | 40.7 | 49.5 | 95.6 | 92.1 | 93.9 | 94.7 | 51.7 | 87.5 | 97.8 | 6.8 | 10.6 | 16.6 | 33.1 | 45 | 61.4 | 49.3 | 82.9 | Chemokine-induced Adhesion in encephalitogenic lymphocytes, Mean counts ± S.D., in presence of MIP3-β stimulation ([2]; [cpd] 10 μM): 73.2 ± 5.5; Adhesion in encephalitogenic lymphocytes, Mean counts ± S.D., in absence of MIP3-β stimulation ([2]; [cpd] 10 μM): 48.7 ± 6.5; Chemokine-induced Adhesion in encephalitogenic lymphocytes, Mean counts ± S.D., in presence of MIP3-β stimulation ([2]; [cpd] 50 μM): 46.8 ± 4.7; Adhesion in encephalitogenic lymphocytes, Mean counts ± S.D., in absence of MIP3-β stimulation ([2]; [cpd] 50 μM): 19.8 ± 5.8; inhibition at 50 µM (lymphocytes [8]): 92.2%
3 | CCOC(=O)CCc1[nH]c2cc(OC)c(OC)cc2c1-c1ccc(OC)cc1 [Example 22] | 56.9 | 88.7 | 97.8 | 39.9 | 61.3 | 94.7 | 65 | 95.6 | 97.1 | 23.7 | 80.1 | 96.4 | 9.5 | 29.6 | 42.6 | 2.6 | 13.8 | 32.6 | 47.9 | 84.6 | Chemokine-induced Adhesion in encephalitogenic lymphocytes, Mean counts ± S.D., in presence of MIP3-β stimulation ([2]; [cpd] 10 μM): 74.1 ± 6.4; Adhesion in encephalitogenic lymphocytes, Mean counts ± S.D., in absence of MIP3-β stimulation ([2]; [cpd] 10 μM): 44.2 ± 5.7; Chemokine-induced Adhesion in encephalitogenic lymphocytes, Mean counts ± S.D., in presence of MIP3-β stimulation ([2]; [cpd] 50 μM): 48.0 ± 6.4; inhibition at 50 µM (lymphocytes [8]): 94.7%
4 | COc1ccc(-c2c(-c3nnc(C)o3)[nH]c3cc(OC)c(OC)cc23)cc1 [Example 77] | 51.3 | 49.4 | 59.5 | 25.9 | 34.8 | 95.9 | 15.9 | 20.7 | 30.5 | 40.6 | 48.9 | 59 | 3.5 | 33.4 | 50.8 | 17.4 | 24.7 | 30.5 | 13.6 | 25.4 | inhibition at 50 µM (lymphocytes [8]): 33.8%
